In ChEMBL document CHEMBL1154198, “Chemical genetics of Plasmodium falciparum” (Nature, 2010):

Columns and labels:
Plasmodium falciparum [1] = test: ST_JUDE: Plasmodium falciparum K1 EC50 (uM) as measured by SYBR green dye; type: functional, organism-based
Plasmodium falciparum [2] = test: ST_JUDE: Plasmodium falciparum 3D7 EC50 (uM) as measured by SYBR green dye; type: functional, organism-based

Row | SMILES | EC50 (Plasmodium falciparum [1]) | EC50 (Plasmodium falciparum [2])
1 | COc1ccc(CNCCc2ccc(F)cc2)cc1C | > 15 µM | > 15 µM
2 | COc1cc(CNc2cc(Cl)ccc2C)cc(I)c1OC | 3.17 µM | > 15 µM
3 | COc1ccc(OC)c2sc(NNC(=O)c3ccc(S(=O)(=O)N(C)C)cc3)nc12 | 6.61 µM | 6.72 µM
4 | Cc1c(C(=O)NCCCn2ccnc2)sc2nc(-c3cccc([N+](=O)[O-])c3)cn12 | 9.22 µM | > 15 µM
5 | Cc1c(Cl)ccc2c(C(=O)Nc3ccc(S(=O)(=O)N4CCOCC4)cc3)cc(-c3cccnc3)nc12 | > 15 µM | 1.22 µM
6 | COc1ccc(N(CC(=O)Nc2cccc(C(F)(F)F)c2)S(C)(=O)=O)cc1 | > 15 µM | > 15 µM
7 | Cc1sc(NC(=O)c2cc(-c3ccccn3)nc3ccc(Cl)cc23)c(C(N)=O)c1C | > 15 µM | > 15 µM
8 | CCN(CC)CCNC(=O)c1ccc(Cn2c(SCc3ccccc3C)nc3ccncc32)cc1 | > 15 µM | 6.74 µM
9 | Cc1cccc(-n2ccnc2SCC(=O)Nc2cccc(C(F)(F)F)c2)c1C | 1.81 µM | 0.836 µM
10 | O=C(Nc1cccc(Cl)c1)Nc1ccccc1OC(F)(F)C(F)F | 1.32 µM | 3.06 µM
11 | COc1cc(/C=C(\C#N)C(=O)Nc2ccccc2F)cc(OC)c1OC | > 15 µM | > 15 µM
12 | C=CCN1C(=O)c2[nH]nc(-c3c(C)cc(C)cc3O)c2C1c1ccc(OCC)cc1 (stereo not given) | 1.72 µM | 2.74 µM
13 | CCCc1cc(O)nc(-n2nc(C)cc2NC(=O)c2ccc(C)cc2)n1 | > 15 µM | > 15 µM
14 | C=CCn1c(C)c(C=C2C(=O)NC(=S)NC2=O)c2ccccc21 | 1.4 µM | 1.69 µM
15 | CCCO/C(O)=C1\C(C)=NC2=C(C(=O)CC(c3ccccc3OC)C2)C1c1ccc([N+](=O)[O-])cc1 (stereo not given) | 1.15 µM | 0.759 µM
16 | CCO/C(O)=C1\C(C)=NC2=C(C(=O)CC(c3ccc(OC)c(OC)c3)C2)C1c1ccc(SC)cc1 (stereo not given) | 3.18 µM | 3.2 µM
17 | Oc1c(C(Nc2ccccn2)c2ccc(Cl)c(Cl)c2)ccc2cccnc12 (stereo not given) | 4.36 µM | 1.34 µM
18 | O=C(CSc1ccccc1[N+](=O)[O-])Nc1cccc(Br)c1 | > 15 µM | > 15 µM
19 | CCOc1ccc(N(C(C)=O)C2=C(N3CCCCC3)C(=O)c3ccccc3C2=O)cc1 | > 15 µM | 0.542 µM
20 | COc1ccc(OCC(O)CN2CCN(c3ccc(OC)cc3)CC2)cc1 (stereo not given) | > 15 µM | > 15 µM
21 | CCOc1cccc(C2CC(=O)NC3=C2C(=O)CC(c2ccccc2Cl)C3)c1 (stereo not given) | 3.11 µM | 3.72 µM
22 | O=C1c2ccc3c4c(ccc(c24)C(=O)N1CCO)C(=O)N(CCO)C3=O | 2.7 µM | > 15 µM

Row | SMILES | EC50 (Plasmodium falciparum [1]) | EC50 (Plasmodium falciparum [2])
23 | Cc1cccc(C)c1OCC(=O)N(Cc1ccc(C(C)C)cc1)Cc1ccco1 | > 15 µM | 4.79 µM
24 | COC(=O)c1c(S(=O)(=O)N2CCCN(C)CC2)sc2c1CCN(CC(C)c1ccccc1)C2 (stereo not given) | > 15 µM | > 15 µM
25 | CC(=O)NC(c1ccc(C(C)C)cc1)c1ccc2cccnc2c1O (stereo not given) | 6.76 µM | 6.6 µM
26 | Oc1cccc2ccc[n+](CC(O)Cn3c4ccccc4c4ccccc43)c12 (stereo not given) | > 15 µM | 1.31 µM
27 | CCc1ccc(C2C(C(=O)OC)=C(N)OC3=C2C(=O)CC(C)(C)C3)cc1 (stereo not given) | > 15 µM | > 15 µM
28 | COc1cccc(-c2nn(C)c3sc(C(=O)NCCN4CCN(Cc5ccccc5)CC4)cc23)c1 | > 15 µM | > 15 µM
29 | CCOC(=O)C1=C(CN(C)c2ccc(F)cc2)NC(=O)NC1c1ccc(F)cc1 (stereo not given) | 1.23 µM | 3.51 µM
30 | COc1ccc(Cl)cc1NC(=O)CSc1nc(-c2ccccc2Cl)ns1 | 2.66 µM | 1.43 µM
31 | Cc1ccc(Nc2nc(NCCO)c3ccccc3n2)cc1C | 2.27 µM | 0.843 µM
32 | CO/C(O)=C1\C(C)=NC2=C(C(=O)CC(c3ccc(OC)c(OC)c3)C2)C1c1cccc(Cl)c1 (stereo not given) | 3.46 µM | 4.1 µM
33 | Cc1cc(C)c2nc(NNC(=O)c3ccc(S(=O)(=O)N(C)C)cc3)sc2c1 | 4.88 µM | 6.63 µM
34 | CCOC(=O)c1c(NC(=S)NCCc2ccccc2)sc2c1CC(C)(C)OC2 | > 15 µM | > 15 µM
35 | CCc1ccc(C2c3c(-c4ccccc4O)n[nH]c3C(=O)N2CCCOC(C)C)cc1 (stereo not given) | > 15 µM | > 15 µM
36 | CCOC(=O)c1c(N)n[nH]c1O | > 15 µM | > 15 µM
37 | CCN1/C(=C/c2sc3ccc(C(=O)OC)cc3[n+]2CC)C=Cc2cc(OC)ccc21 | 0.154 µM | 0.0668 µM
38 | CCc1cccc(NC(=O)C2c3ccccc3C(=O)N(C3CCCC3)C2c2cccs2)c1 (stereo not given) | 2.01 µM | 2.29 µM
39 | CCc1nc2sc(C(c3cccc(F)c3)N3CCN(c4ccc(OC)cc4)CC3)c(O)n2n1 (stereo not given) | > 15 µM | > 15 µM
40 | COc1ccccc1OCCCCN1CCCC1 | > 15 µM | > 15 µM
41 | CN1C(=O)/C(=C\c2cccc(Cl)c2)Sc2ccc(C(=O)NC3CCN(Cc4ccccc4)CC3)cc21 | > 15 µM | 0.657 µM
42 | Cc1ccc2nc(NNC(=O)c3ccc(S(=O)(=O)N(C)C)cc3)sc2c1 | 5.39 µM | 5.03 µM
43 | Cc1ccc(-n2cc(CN3CCCC(C(N)=O)C3)c(-c3cccc(C)c3)n2)cc1 (stereo not given) | 4.22 µM | 5.24 µM
44 | Cc1ccnc(NC(c2ccccc2F)c2ccc3cccnc3c2O)c1 (stereo not given) | 1.5 µM | 1.86 µM

Row | SMILES | EC50 (Plasmodium falciparum [1]) | EC50 (Plasmodium falciparum [2])
45 | CCc1cc2c(=O)c(-c3ccc(OC(C)C)cc3)coc2cc1OC(C)=O | 4.25 µM | > 15 µM
46 | CN1/C(=C/c2cccc[n+]2CCO)Sc2ccccc21 | 1.2 µM | 1.79 µM
47 | Cc1ccc2c(c1)-c1c(cnn1CC(=O)Nc1cccc(C#N)c1)CO2 | 5.38 µM | > 15 µM
48 | O=C(Nc1ccccc1Cl)c1cc2ccccc2cc1O | 0.547 µM | > 15 µM
49 | CCCc1cc(O)nc(-n2nc(C)cc2NC(=O)c2ccccc2F)n1 | > 15 µM | > 15 µM
50 | Cc1cc(Cn2ccnc2)c(C)c([N+](=O)[O-])c1Cn1ccnc1 | > 15 µM | > 15 µM
51 | CCOC(=O)c1nnn(-c2nonc2N)c1-c1ccc(Cl)cc1 | 3.47 µM | > 15 µM
52 | Cc1ccc(-n2nc(C)c3c(C)c(CCC(=O)Nc4ccc5[nH]c(-c6cccnc6)nc5c4)c(C)nc32)cc1C | 1.04 µM | 0.798 µM
53 | CCN1C(=O)c2ccccc2Sc2ccc(NC(=O)NCc3ccccc3Cl)cc21 | > 15 µM | > 15 µM
54 | CN(C)c1ccc(Nc2nc(-c3cccnc3)nc3ccccc23)cc1 | 5.08 µM | > 15 µM
55 | COc1ccc(N2CCN(C3CCCN(Cc4cccc(SC)c4)C3)CC2)cc1 (stereo not given) | > 15 µM | > 15 µM
56 | Cc1ccc2nc(C)cc(Nc3cccc(C(F)(F)F)c3)c2c1 | 6.01 µM | 0.879 µM
57 | COc1ccc(S(=O)(=O)Nc2ccc(Nc3nc(C)cc(Nc4ccc(C)cc4)n3)cc2)cc1 | 7.51 µM | 0.618 µM
58 | CCCCOc1ccc(S(=O)(=O)Nc2ccc(Nc3nc(C)cc(N(C)C)n3)cc2)cc1 | > 15 µM | 1.66 µM
59 | COc1ccc(CCNC(=S)Nc2ccccc2C)cc1OC | 3.96 µM | 3.75 µM
60 | O=C(CCCCCN1C(=O)c2cccc3cccc(c23)C1=O)NO [SCRIPTAID] | 2.22 µM | 3.78 µM
61 | COc1ccccc1NC(=O)CN1CCN(C(=O)c2ccco2)CC1 | 4.84 µM | 2.84 µM
62 | CS(=O)(=O)N(Cc1ccccc1)c1ccccc1C(=O)Nc1cc(Cl)ccc1Cl | 4.58 µM | 6.12 µM
63 | Cc1cc(C)nc(/N=C(\N)Nc2ccc(Cl)cc2C(=O)c2ccccc2)n1 | 8.05 µM | 3.59 µM
64 | CCOc1ccc2nc(C)cc(Nc3cccc(OC)c3)c2c1 | 6.76 µM | 3.41 µM
65 | N#Cc1cccc(NC(=O)C2c3ccccc3C(=O)N(C3CCCC3)C2c2cccs2)c1 (stereo not given) | 0.253 µM | 0.188 µM
66 | CC1CCCCN1CCCNC(=O)c1ccc2c(c1)sc1nc(-c3ccc(F)cc3)cn12 (stereo not given) | 1.59 µM | 0.634 µM

Row | SMILES | EC50 (Plasmodium falciparum [1]) | EC50 (Plasmodium falciparum [2])
67 | C=C(C)CNc1nncc(-c2ccccc2C)n1 | > 15 µM | > 15 µM
68 | CCN(CC)CCN1C(=O)c2oc3ccccc3c(=O)c2C1c1cccc(OC)c1 (stereo not given) | 1.05 µM | 0.995 µM
69 | COc1ccc(-c2nonc2NC(=O)c2ccc(C(C)(C)C)cc2)cc1OC | 1.17 µM | 1.06 µM
70 | COc1ccccc1CNC(=O)C1c2ccccc2C(=O)N(CC(C)C)C1c1cccs1 (stereo not given) | 3.7 µM | 3.16 µM
71 | CN(C)c1ccc(Nc2c3ccccc3nc3ccccc23)cc1 | 1.11 µM | 1.46 µM
72 | COc1ccc(C(C)(C)C)cc1S(=O)(=O)Nc1ccc(Nc2nc(C)cc(N(C)C)n2)cc1 | 1.32 µM | 0.741 µM
73 | COc1ccc2nc(N(Cc3cccnc3)C(=O)c3cccc(Cl)c3)sc2c1 | > 15 µM | > 15 µM
74 | CCOC(=O)c1ccc(N2Cc3ccccc3C2)cc1O | > 15 µM | > 15 µM
75 | Cc1cc(C)c2ccc(N)nc2c1O | 4.81 µM | 3.86 µM
76 | COc1ccc(Cn2c(SCc3cccc(F)c3)nc3nccnc3c2=O)cc1 | > 15 µM | > 15 µM
77 | Cc1ccc2nc(-c3cccnc3)cc(C(=O)Nc3ccc(S(=O)(=O)NC(C)(C)C)cc3)c2c1 | > 15 µM | > 15 µM
78 | Cc1cccc(/C=C2/Sc3ccc(C(=O)NCCN4CCN(c5cc(Cl)ccc5C)CC4)cc3N(C)C2=O)c1 | 0.965 µM | 0.985 µM
79 | CCC1CCCCN1S(=O)(=O)c1ccc(C(=O)NNc2nc3c(C)cccc3s2)cc1 (stereo not given) | > 15 µM | > 15 µM
80 | Cc1cc(N2CCCC2)nc(Nc2ccc(NS(=O)(=O)c3ccc(Cl)cc3)cc2)n1 | > 15 µM | 2.12 µM
81 | CSc1nnc(-c2cccc([N+](=O)[O-])c2)n1Cc1ccccc1 | 1.3 µM | 1.39 µM
82 | CC(C)c1ccc(NC(=O)CSc2n[nH]c(-c3ccccc3Cl)n2)cc1 | 4.96 µM | 4.78 µM
83 | COC(=O)c1ccc(NC(=O)CSc2ccc3nnc(-c4ccc(C)cc4)n3n2)cc1 | > 15 µM | > 15 µM
84 | Oc1c(CN2CCN(Cc3ccc4cccnc4c3O)CC2)ccc2cccnc12 | 6.32 µM | > 15 µM
85 | COc1ccc(Nc2cc(C)nc(N3CCN(C(=O)c4ccccc4C(F)(F)F)CC3)n2)cc1 | 1.57 µM | 3.59 µM
